In article doi:10.1101/2022.10.18.512764v1 (bioRxiv, 2022):

Key:
HeLa [1] = test: TMR-TAT endocytic uptake measured by flow cytometry; format: cell-based
HeLa [2] = test: Quantification of TMR-TAT puncta by 100x fluorescence microscopy; format: cell-based; conditions: TMR-TAT 5 µM, 1 h, 100x deconvoluted images, individual puncta

## RKKQRRRG [TMR-TAT]
HeLa [1]; HeLa cultured 2, 10, 25 days, TMR-TAT 5 µM, 1 h, Fig S1
  Effect of cell aging on endocytosis: no effect
HeLa [1]; HeLa grown 24 h, TMR-TAT 5 µM 1 h in L-15, Fig 3B
  Difference in uptake between growth in LG-DMEM and HG-DMEM, incubation in L-15: not detectable
HeLa [1]; HeLa, TMR-TAT 5 µM in L-15, 5-60 min
  Rate of TMR-TAT uptake at 25°C as percentage of that at 37°C: approximately 50%
HeLa [1]; HeLa, TMR-TAT 5 µM in L-15, 60 min incubation time point, Fig 4
  Uptake less at 25°C than at 37°C, fold: 1.9 fold
HeLa [1]; HeLa, TMR-TAT 5 µM, 1 h, DMEM 0 vs 25 mM glucose, Fig 3C
  Effect of removing glucose from DMEM during incubation on uptake: reduction
HeLa [1]; HeLa, TMR-TAT 5 µM, 1 h, L15 25 vs 0 mM glucose (5 mM galactose), Fig 3C
  Effect of adding glucose to L15 on uptake: increased
HeLa [1]; HeLa, TMR-TAT 5 µM, 1 h, possibly because of unwashed BSA, Fig S4
  Effect of 0 wash on uptake: uptake is inhibited
HeLa [1]; HeLa, TMR-TAT 5 µM, 1 h, discussion
  Difference between MUP and HUP, fold MFI change: 2.3 fold
HeLa [1]; HeLa, TMR-TAT 5 µM, 1 h, using a median of 0.8 × 10^3 for untreated cells
  Fold increase in uptake, HUP compared to LUP: 13 fold
HeLa [1]; HeLa, TMR-TAT 5 µM, 1 h incubation, Fig 3A
  Endocytosis higher in DMEM (serum free) than in L-15, factor: 1.4 fold
HeLa [2]
  Average pixel intensity of puncta, HUP versus MUP: not statistically different
